US20230121179A1, “SKIN BARRIER FUNCTION ENHANCER” (Shiseido Company, Ltd., priority 2020, published 2023)
Several values for one entry are separate records, joined by “and”; a condition that tells them apart may be missing. Equal entries are not always repeated.

What was measured:
CASP14 = assay: Microarray gene expression in keratinocytes after UV irradiation through wavelength conversion substance; format: cell-based; design: key: O represents the gene whose expression is significantly changed; X represents the gene whose expression is not changed; conditions: Normal Human Epidermal Keratinocytes, UV 100 mJ/cm^2 through wavelength conversion substance solution, no direct contact, 24 h incubation
Description: (§1) Lumate G is a zinc oxide phosphor obtained by doping ZnO with a sulfur-containing compound and then firing as described in International Patent Publication No. 2018/004006, the absorption spectrum having a peak wavelength at 365 nm and the emission spectrum having a peak wavelength at 510 nm. • (4) Magnesium titanate phosphor Lumate R by Sakai Chemical Industry Co., Ltd. was used. Lumate R is a magnesium titanate phosphor obtained by doping MgTiO3 with manganese, the absorption spectrum having a peak wavelength at 365 nm and the emission spectrum having peak wavelengths in the range of 660 to 680 nm. • The wavelength conversion substances of (1) and (2) were dissolved in water to prepare solutions at concentrations of 1% and 5%. • The wavelength conversion substances of (3) and (4) were dispersed in alcohol to prepare 5% and 10% dispersions.
(§2) Cell samples were prepared in the following manner. • 1. Human human skin keratinocytes (Normal Human Epidermal Keratinocytes, PromoCell) were used. A cell suspension (1 mL) stored with liquid nitrogen was placed in a hot water bath (37° C.) and thawed until small ice pellets remained, and then diluted with 9 mL of warm KGM medium. • 2. The diluted suspension was gently mixed and transferred to a T75 flask, and incubated overnight at 37° C. • 3. On the following day, the medium was exchanged with 10 mL of fresh medium. • 4. The medium was periodically exchanged (once every 2 - 3 days), while continuing growth of the cells. During this time, a microscope was used to observe the cells and to confirm that the cells had proliferated with the proper form. • 5. Once the cells reached approximately 80% confluence, they were subcultured. • 6. Subculturing of the cells was carried out by rinsing and aspirating once in 10 mL of warm PBS. • 7. 5 mL of warm trypsin was added to the T75 flask to cover the bottom of the flask with the trypsin solution, and the mixture was aspirated after standing for 1 minute at room temperature. • 8. The flask was set in an oven at 37° C. for 5 minutes (maximum) for keratinocytes. A microscope was used to observe the cells, confirming that they were small and elliptical. • 9. The sides of the T75 flask were then lightly tapped to free the cells. A microscope was used to observe the cells and confirm that they were freely moving. • 10. The keratinocytes were resuspended in 5 mL of warm trypsin neutralizing solution, transferred to a sterilized 50 mL Falcon tube. The flask was further rinsed with 5 mL of warm FGM and added to the Falcon tube, to ensure transfer of all of the cells. • 11.. The cells were centrifuged at […] for 5 minutes (4° C.), and the supernatant was carefully removed while avoiding disturbing the cell pellet. • 12. The keratinocytes were resuspended in KGM at a concentration of 2 × 10^4 cells/well (500 µL), and plated in collagen coated glass bottom 4-well chamber slide. • 13. The medium was replaced every two or three days, and cells were proliferated until they reached 60 to 70% confluence (differing for the type of experiment). • 14. At 24 hours before irradiation, the medium was changed to non-supplemented medium.
(§3) • 1. At least 30 minutes prior to irradiation, the power source of a solar simulator was activated to warm up the lamp. The solar simulator used was a UG11 filter. A UG11 filter is a filter that allows passage of UVB alone while cutting light of other wavelengths. […] The temperature control plate was turned on and set to 33° C. • 3. The cells prepared in Experiment 1-2 were rinsed once with warm PBS. • 4. A 0.5 mL portion of warmed Martinez solution (145 mM NaCl, 5.5 mM KC1, 1.2 mM MgCl2·6H2O, 1.2 mM NaH2PO4·2H2O, 7.5 mM HEPES, 1 mM CaCl2 and 10 mM D-glucose) was added to each well. • 5. […] The irradiation was carried out to a total radiation dose of 100 mJ/cm^2. […]

CDSN = assay: as above; format: cell-based; design: key: O represents the gene whose expression is significantly changed; X represents the gene whose expression is not changed; conditions: Normal Human Epidermal Keratinocytes, UV 100 mJ/cm^2 through wavelength conversion substance solution, no direct contact, 24 h incubation
Description: as §1, §2, §3

FLG = assay: as above; format: cell-based; design: key: O represents the gene whose expression is significantly changed; X represents the gene whose expression is not changed; conditions: Normal Human Epidermal Keratinocytes, UV 100 mJ/cm^2 through wavelength conversion substance solution, no direct contact, 24 h incubation
Description: as §1, §2, §3

INV = assay: as above; format: cell-based; design: key: O represents the gene whose expression is significantly changed; X represents the gene whose expression is not changed; conditions: Normal Human Epidermal Keratinocytes, UV 100 mJ/cm^2 through wavelength conversion substance solution, no direct contact, 24 h incubation
Description: as §1, §2, §3

LOR = assay: as above; format: cell-based; design: key: O represents the gene whose expression is significantly changed; X represents the gene whose expression is not changed; conditions: Normal Human Epidermal Keratinocytes, UV 100 mJ/cm^2 through wavelength conversion substance solution, no direct contact, 24 h incubation
Description: as §1, §2, §3

SMPD1 = assay: as above; format: cell-based; design: key: O represents the gene whose expression is significantly changed; X represents the gene whose expression is not changed; conditions: Normal Human Epidermal Keratinocytes, UV 100 mJ/cm^2 through wavelength conversion substance solution, no direct contact, 24 h incubation
Description: as §1, §2, §3

TGase1 = assay: as above; format: cell-based; design: key: O represents the gene whose expression is significantly changed; X represents the gene whose expression is not changed; conditions: Normal Human Epidermal Keratinocytes, UV 100 mJ/cm^2 through wavelength conversion substance solution, no direct contact, 24 h incubation
Description: as §1, §2, §3

[1] = Absorption and emission spectra of wavelength conversion substances; format: physicochemical
Description: as §1

| Compound | CASP14 gene expression change (CASP14) | CDSN gene expression change (CDSN) | FLG gene expression change (FLG) | INV gene expression change (INV) | LOR gene expression change (LOR) | SMPD1 gene expression change (SMPD1) | TGase1 gene expression change (TGase1) | absorption spectrum peak wavelength [1] | emission spectrum peak wavelength [1] |
| --- | --- | --- | --- | --- | --- | --- | --- | --- | --- |
| Cc1cc2nc3c(=O)[nH]c(=O)nc-3n(C[C@H](O)[C@H](O)[C@H](O)CO)c2cc1C [Vitamin B2, Riboflavin, reference compound] | O | O | O | O | X | O | O | 445 nm | 530 nm |
| C-phycocyanin [Lina Blue] | O | O | O | O | O | O | O | 350 nm | 640 nm and 700 nm |
